Values quoted from earlier work, collected in patent publication US12527751B2, “Oral thin film with high active agent loading” (LTS LOHMANN THERAPIE-SYSTEME AG, priority 2017, dated 2026).

Conditions: compared with (R) ketamine

CNC1(c2ccccc2Cl)CCCCC1=O (racemic) [(S) ketamine, (S)-(±)-2-(2-chlorophenyl)-2-(methylamino)cyclohexan-1-one]
Analgesic and anaesthetic potency relative to the (R) form: approximately three times higher
